Like-named read-outs stand apart in the source and are kept apart here.
Columns and labels:
Tyk2 = target: T1, Tyk2 (Homo sapiens, UniProt P29597); experiment: Biochemical Tyk2 kinase assay (LanthaScreen); conditions: for Ki: read-out: Tyk 2 (pKi) (converted)
T1 construct: GST; purchased Life Technologies
Method in brief: (§1)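 Recombinant GST-tagged JAK enzymes with GFP-STAT1 peptide substrate in 50 mM HEPES pH 7.5, 10 mM MgCl2, 1 mM EGTA, 0.01% Brij-35; compounds pre-incubated 1 h, then ATP added, 1 h reaction at ambient temperature. TR-FRET (Tb-anti-pSTAT1 pTyr701, 520/495 nm) after EDTA stop; IC50 by 4-parameter fit, converted to pKi via Cheng-Prusoff.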

JAK2 = target: T2, JAK2 (Homo sapiens, UniProt O60674); experiment: Biochemical JAK2 kinase assay (LanthaScreen); conditions: for Ki: read-out: JAK 2 (pKi) (converted)
T2 construct: GST; purchased Life Technologies
Method in brief: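 pKi values derive from pIC50 via Cheng-Prusoff, with IC50 from a 4-parameter fit of percent-inhibition TR-FRET data using Tb-anti-pSTAT1 (pTyr701) detection. Compound, GST-JAK2 and GFP-STAT1 substrate were pre-incubated 1 h, then ATP started a 1 h ambient reaction (HEPES pH 7.5, 10 mM MgCl2, 1% DMSO).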

[1] = test system: IL-2 stimulated pSTAT5 in Tall-1 T cells; experiment: Cellular JAK3 potency assay: inhibition of IL-2 stimulated pSTAT5 in Tall-1 T cells; assay type: cell-based, human; conditions: for IC50: Homo sapiens, read-out: Tall-1 (pIC50) (converted)
Method in brief: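 Inhibition of IL-2-induced pSTAT5 was quantified by AlphaLisa in Tall-1 cell lysates. Compound exposure lasted 1 h before 30 min stimulation with 300 ng/ml IL-2 final.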

JAK1 = target: T3, JAK1 (Homo sapiens, UniProt P23458); experiment: Biochemical JAK1 kinase assay (LanthaScreen); conditions: for Ki: read-out: JAK 1 (pKi) (converted)
T3 construct: GST; purchased Life Technologies
Method in brief: as §1

JAK3 = target: T4, JAK3 (Homo sapiens, UniProt P52333); experiment: Biochemical JAK3 kinase assay (LanthaScreen); parameters: GST; purchased Life Technologies; conditions: for Ki: read-out: JAK 3 (pKi) (converted)
T4 sequence (P52333 1-1124): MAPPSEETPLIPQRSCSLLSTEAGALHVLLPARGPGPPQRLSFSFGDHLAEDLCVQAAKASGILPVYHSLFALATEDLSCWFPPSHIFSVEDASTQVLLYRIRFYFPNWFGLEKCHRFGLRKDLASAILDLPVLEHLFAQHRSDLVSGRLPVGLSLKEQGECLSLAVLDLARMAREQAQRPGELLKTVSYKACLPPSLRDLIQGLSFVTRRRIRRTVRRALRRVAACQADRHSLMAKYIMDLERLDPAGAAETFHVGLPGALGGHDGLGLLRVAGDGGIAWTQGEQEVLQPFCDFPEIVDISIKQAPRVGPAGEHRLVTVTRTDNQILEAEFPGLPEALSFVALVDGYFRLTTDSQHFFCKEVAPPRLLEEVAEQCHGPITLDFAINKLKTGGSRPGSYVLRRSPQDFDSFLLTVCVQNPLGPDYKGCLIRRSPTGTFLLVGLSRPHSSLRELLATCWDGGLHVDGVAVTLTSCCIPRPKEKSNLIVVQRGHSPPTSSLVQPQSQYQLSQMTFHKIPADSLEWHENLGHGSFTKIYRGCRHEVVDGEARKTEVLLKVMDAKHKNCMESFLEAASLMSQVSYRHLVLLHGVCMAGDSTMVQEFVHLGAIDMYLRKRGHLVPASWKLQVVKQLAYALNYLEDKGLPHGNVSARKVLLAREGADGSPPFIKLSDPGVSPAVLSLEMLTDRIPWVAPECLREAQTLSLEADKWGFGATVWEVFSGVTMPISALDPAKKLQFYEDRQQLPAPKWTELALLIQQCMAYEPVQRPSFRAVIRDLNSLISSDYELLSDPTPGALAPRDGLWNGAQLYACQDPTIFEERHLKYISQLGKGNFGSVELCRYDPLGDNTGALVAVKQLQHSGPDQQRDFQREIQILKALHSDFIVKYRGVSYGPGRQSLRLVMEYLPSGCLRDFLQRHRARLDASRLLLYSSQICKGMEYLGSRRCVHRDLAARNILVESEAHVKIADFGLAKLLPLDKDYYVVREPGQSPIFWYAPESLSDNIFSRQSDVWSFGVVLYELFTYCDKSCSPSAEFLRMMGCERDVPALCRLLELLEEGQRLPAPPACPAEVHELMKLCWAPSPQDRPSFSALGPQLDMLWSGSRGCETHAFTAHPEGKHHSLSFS
Method in brief: as §1

[2] = TALL-1, IL-2 stimulated pSTAT5, Tall-1 T cells
[3] = selectivity JAK3 over JAK1, difference of pKi
[4] = selectivity: difference of pKi JAK3 and pKi JAK1
[5] = IL-2 stimulated pSTAT5, Tall-1 T cells

T2 sequence (O60674 whole entry): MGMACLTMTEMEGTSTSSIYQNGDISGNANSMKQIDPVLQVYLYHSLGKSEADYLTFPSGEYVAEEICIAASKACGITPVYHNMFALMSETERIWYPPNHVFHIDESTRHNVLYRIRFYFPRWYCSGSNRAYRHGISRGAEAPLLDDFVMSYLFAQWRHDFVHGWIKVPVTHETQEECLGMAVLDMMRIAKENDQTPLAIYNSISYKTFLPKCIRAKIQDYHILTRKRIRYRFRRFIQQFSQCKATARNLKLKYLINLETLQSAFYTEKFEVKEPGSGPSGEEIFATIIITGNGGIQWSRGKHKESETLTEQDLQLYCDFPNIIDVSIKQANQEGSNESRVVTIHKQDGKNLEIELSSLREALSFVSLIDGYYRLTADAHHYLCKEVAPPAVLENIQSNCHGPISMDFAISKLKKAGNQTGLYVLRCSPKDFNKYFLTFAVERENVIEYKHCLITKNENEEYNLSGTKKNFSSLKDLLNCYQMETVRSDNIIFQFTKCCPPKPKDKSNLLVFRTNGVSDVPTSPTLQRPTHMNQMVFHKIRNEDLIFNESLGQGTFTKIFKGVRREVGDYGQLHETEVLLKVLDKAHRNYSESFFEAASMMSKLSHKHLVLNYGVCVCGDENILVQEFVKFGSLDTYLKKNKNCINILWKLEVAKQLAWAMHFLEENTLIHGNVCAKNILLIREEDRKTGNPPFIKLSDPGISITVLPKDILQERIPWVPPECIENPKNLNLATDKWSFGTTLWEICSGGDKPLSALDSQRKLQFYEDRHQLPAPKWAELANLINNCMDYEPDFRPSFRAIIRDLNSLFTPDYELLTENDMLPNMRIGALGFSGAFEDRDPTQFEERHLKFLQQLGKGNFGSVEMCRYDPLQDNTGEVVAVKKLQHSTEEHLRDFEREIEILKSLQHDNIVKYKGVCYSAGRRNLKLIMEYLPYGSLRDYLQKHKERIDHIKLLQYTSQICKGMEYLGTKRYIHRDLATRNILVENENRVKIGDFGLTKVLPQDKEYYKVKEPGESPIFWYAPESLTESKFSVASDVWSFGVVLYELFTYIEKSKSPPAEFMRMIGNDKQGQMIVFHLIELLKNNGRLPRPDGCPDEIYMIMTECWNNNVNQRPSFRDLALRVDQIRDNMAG
T3 sequence (P23458 whole entry): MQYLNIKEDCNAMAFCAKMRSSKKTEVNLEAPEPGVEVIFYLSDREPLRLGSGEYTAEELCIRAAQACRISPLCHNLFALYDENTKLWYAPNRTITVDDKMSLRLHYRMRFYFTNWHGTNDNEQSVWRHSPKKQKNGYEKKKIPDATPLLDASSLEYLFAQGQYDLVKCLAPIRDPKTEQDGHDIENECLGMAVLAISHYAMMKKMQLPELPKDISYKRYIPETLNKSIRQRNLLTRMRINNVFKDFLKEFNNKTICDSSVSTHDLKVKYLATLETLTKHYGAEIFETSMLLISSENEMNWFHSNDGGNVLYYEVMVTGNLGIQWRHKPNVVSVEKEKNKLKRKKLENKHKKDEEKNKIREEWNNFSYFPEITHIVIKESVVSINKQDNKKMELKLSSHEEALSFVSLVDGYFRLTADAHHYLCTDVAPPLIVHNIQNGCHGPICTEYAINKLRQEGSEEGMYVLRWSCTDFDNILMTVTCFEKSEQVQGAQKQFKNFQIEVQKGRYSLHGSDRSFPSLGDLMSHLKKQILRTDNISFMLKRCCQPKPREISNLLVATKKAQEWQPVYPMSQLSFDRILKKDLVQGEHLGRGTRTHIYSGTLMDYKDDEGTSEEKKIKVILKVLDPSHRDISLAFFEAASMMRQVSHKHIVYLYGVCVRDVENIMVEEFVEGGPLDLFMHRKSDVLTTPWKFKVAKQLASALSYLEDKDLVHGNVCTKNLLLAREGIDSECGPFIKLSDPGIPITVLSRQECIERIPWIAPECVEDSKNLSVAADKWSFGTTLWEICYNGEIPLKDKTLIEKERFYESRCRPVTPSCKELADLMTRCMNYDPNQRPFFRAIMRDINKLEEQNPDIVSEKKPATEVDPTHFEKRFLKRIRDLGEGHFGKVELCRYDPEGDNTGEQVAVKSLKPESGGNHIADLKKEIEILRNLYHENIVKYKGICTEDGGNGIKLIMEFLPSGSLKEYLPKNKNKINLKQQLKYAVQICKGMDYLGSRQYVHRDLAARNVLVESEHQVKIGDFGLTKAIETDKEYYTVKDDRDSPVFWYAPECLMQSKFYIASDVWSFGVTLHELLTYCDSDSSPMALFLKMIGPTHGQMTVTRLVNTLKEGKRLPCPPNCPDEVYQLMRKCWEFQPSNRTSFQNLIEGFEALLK
T1 sequence (P29597 whole entry): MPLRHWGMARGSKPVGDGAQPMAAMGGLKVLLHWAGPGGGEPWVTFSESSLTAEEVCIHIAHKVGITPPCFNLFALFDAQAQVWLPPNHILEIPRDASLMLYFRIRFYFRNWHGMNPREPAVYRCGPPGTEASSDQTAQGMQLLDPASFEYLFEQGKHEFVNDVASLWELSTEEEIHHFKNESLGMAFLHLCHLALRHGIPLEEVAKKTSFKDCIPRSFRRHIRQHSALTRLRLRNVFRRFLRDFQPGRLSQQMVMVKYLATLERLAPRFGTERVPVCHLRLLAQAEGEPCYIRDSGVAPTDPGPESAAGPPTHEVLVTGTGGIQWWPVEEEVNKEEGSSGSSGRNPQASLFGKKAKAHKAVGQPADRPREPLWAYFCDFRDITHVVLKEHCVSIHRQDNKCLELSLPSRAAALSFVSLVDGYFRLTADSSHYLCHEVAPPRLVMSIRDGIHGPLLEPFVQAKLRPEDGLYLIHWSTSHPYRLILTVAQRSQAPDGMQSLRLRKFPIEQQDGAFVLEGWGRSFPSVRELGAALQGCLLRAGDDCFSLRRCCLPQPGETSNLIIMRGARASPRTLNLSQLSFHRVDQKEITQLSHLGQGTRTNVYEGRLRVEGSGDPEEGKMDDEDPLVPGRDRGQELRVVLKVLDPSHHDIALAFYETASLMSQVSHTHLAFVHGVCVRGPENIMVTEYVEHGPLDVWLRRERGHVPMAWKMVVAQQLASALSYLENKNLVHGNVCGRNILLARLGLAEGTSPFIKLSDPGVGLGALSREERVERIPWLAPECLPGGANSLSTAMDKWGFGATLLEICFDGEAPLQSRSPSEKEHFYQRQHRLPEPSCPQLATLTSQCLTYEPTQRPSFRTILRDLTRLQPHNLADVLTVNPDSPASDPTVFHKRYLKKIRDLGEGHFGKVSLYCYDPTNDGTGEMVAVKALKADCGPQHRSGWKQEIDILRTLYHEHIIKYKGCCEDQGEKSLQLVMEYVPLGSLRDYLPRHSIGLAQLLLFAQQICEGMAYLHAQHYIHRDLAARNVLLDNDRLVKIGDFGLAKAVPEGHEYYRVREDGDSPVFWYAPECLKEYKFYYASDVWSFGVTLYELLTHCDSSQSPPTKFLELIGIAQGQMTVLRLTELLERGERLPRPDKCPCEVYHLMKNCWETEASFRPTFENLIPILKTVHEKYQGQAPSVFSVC

| SMILES | Ki (Tyk2) [nM] | Ki (JAK2) [nM] | IC50 [1, 2] [nM] | Ki (JAK1) [nM] | Ki (JAK3) [nM] | JAK3 (pKi)-JAK1 (pKi) (JAK3; [3]) | Tyk 2 (pKi) (Tyk2) | JAK 2 (pKi) (JAK2) | Tall-1 (pIC50) ([1]; IL-2 stimulated pSTAT5 in Tall-1 T cells) | JAK 1 (pKi) (JAK1) | JAK 3 (pKi) (JAK3) | JAK3 (pKi)-JAK1 (pKi) (JAK3; [4]) | IC50 ([1]; TALL-1, IL-2 stimulated pSTAT5 in Tall-1 T cells) [nM] | Tall-1 (pIC50) [1, 5] |
| --- | --- | --- | --- | --- | --- | --- | --- | --- | --- | --- | --- | --- | --- | --- |
| C=CC(=O)N1CCS(=O)(=O)C(C(=O)Nc2cc(-c3ccc(O)cc3)cc3[nH]ncc23)C1 (stereo not drawn) [Compound 12-45] | > 100 | > 100 | 200 to 1000 | > 100 | < 0.1 | A (a value of 3 or above) | – | – | – | – | – | – | – | – |
| CN(C)C/C=C/C(=O)N1CC(CN(C)c2cc(-c3ccc(O)c(Cl)c3)cc3[nH]ncc23)C1 [Compound 4-4] | – | – | – | – | – | – | E (a pKi value of 7 or below (Ki of 100 nM or above)) | E (a pKi value of 7 or below (Ki of 100 nM or above)) | B (a pIC50 value between 6.7 (included) and 7.5 (IC50 between 200 nM and 32 nM)) | E (a pKi value of 7 or below (Ki of 100 nM or above)) | A (a pKi value≥10 (Ki≤0.1 nM)) | A (a value of 3 or above) | – | – |
| CN(C)C/C=C/C(=O)N1CCC(C)(Oc2cc(-c3ccc(O)c(F)c3)cc3[nH]ncc23)CC1 [Compound 6-6] | > 100 | 10 to 100 | < 31.6 | > 100 | 0.1 to 1 | A (a value of 3 or above) | – | – | – | – | – | – | – | – |
| C=CC(=O)N1CC[C@H](S(=O)(=O)c2cc(-c3ccc(O)cc3)cc3[nH]ncc23)C1 [Compound 13] | > 100 | > 100 | – | > 100 | < 0.1 | – | – | – | – | – | – | A (a value of 3 or above) | 31.6 to 200 | – |
| C=CC(=O)N1CC2(CCC2Oc2cc(-c3ccc(O)cc3)cc3[nH]ncc23)C1 (stereo not drawn) [Compound 12-54] | > 100 | 10 to 100 | < 31.6 | > 100 | 0.1 to 1 | B (a value of 2.3 to 3) | – | – | – | – | – | – | – | – |
| CN(C)CC=CC(=O)N1CCCC(Oc2cc(-c3ccc(O)c(F)c3)cc3[nH]ncc23)C1 (stereo not drawn) [Compound 8-4] | – | – | – | – | – | B (a value of 2.3 to 3) | E (a pKi value of 7 or below (Ki of 100 nM or above)) | D (a pKi value between 7 and 8 (Ki between 100 nM and 10 nM)) | – | E (a pKi value of 7 or below (Ki of 100 nM or above)) | B (a pKi value between 9 and 10 (Ki between 1 nM and 0.1 nM)) | – | – | B (a pIC50 value between 6.7 (included) and 7.5 (IC50 between 200 nM and 32 nM)) |
| CN(C)C/C=C/C(=O)N1CC(F)(C(=O)Nc2cc(-c3ccc(O)cc3)cc3[nH]ncc23)C1 [Compound 12-67] | > 100 | > 100 | 31.6 to 200 | > 100 | 0.1 to 1 | A (a value of 3 or above) | – | – | – | – | – | – | – | – |
| C=CC(=O)N1C2CCC1CC(Oc1cc(-c3ccc(O)c(Cl)c3)cc3[nH]ncc13)C2 (stereo not drawn) [Compound 10-4] | – | – | – | – | – | A (a value of 3 or above) | E (a pKi value of 7 or below (Ki of 100 nM or above)) | D (a pKi value between 7 and 8 (Ki between 100 nM and 10 nM)) | – | E (a pKi value of 7 or below (Ki of 100 nM or above)) | B (a pKi value between 9 and 10 (Ki between 1 nM and 0.1 nM)) | – | – | B (a pIC50 value between 6.7 (included) and 7.5 (IC50 between 200 nM and 32 nM)) |
| C=CC(=O)N1CCC(Oc2nc(-c3ccc(O)c(Cl)c3)cc3[nH]ncc23)CC1 [Compound 6-21] | – | – | – | – | – | B (a value of 2.3 to 3) | E (a pKi value of 7 or below (Ki of 100 nM or above)) | D (a pKi value between 7 and 8 (Ki between 100 nM and 10 nM)) | – | D (a pKi value between 7 and 8 (Ki between 100 nM and 10 nM)) | B (a pKi value between 9 and 10 (Ki between 1 nM and 0.1 nM)) | – | – | B (a pIC50 value between 6.7 (included) and 7.5 (IC50 between 200 nM and 32 nM)) |
| C=CC(=O)N1CC2(CC(Oc3cc(-c4ccc(O)c(F)c4)cc4[nH]ncc34)C2)C1 [Compound 15-2] | – | – | – | – | – | B (a value of 2.3 to 3) | E (a pKi value of 7 or below (Ki of 100 nM or above)) | D (a pKi value between 7 and 8 (Ki between 100 nM and 10 nM)) | – | D (a pKi value between 7 and 8 (Ki between 100 nM and 10 nM)) | A (a pKi value≥10 (Ki≤0.1 nM)) | – | – | A (a pIC50 value≥7.5 (IC50≤32 nM)) |

From patent US10392368B2, “Pyrazolo and triazolo bicyclic compounds as JAK kinase inhibitors” (THERAVANCE BIOPHARMA R&D IP, LLC, priority 2017, dated 2019)
